Measurements published in US7960394B2, “Quinazoline derivative” (Banyu Pharmaceutical Co., Ltd., priority 2004, dated 2011).
Like-named read-outs stand apart in the source and are kept apart here. One block for each molecule: values may come before it.

How the values were obtained:
[1] = Brain/cerebrospinal fluid migration test; type: in vivo, SD male rats; details: rat; for concentration at 2 h / concentration at 30 min: male, SD
Description: A test compound was orally or intravenously administered to SD male rats (7 to 10 week-age, 200 to 400 g). While they were anesthetized with ether for a predetermined period of time, the whole blood was collected from them via their abdominal aorta, using a heparin-processed syringe. Then, their occipital skin was cut open, and a dental 30 G needle was stuck into the cervical vertebrae and further into the subarachnoid cavity. Via the tube connected to the dental 30 G needle, from 50 to 100 μL of the cerebrospinal fluid was collected in a 1 mL-syringe, and then the brain was taken out. The blood sample was centrifuged (4° C., 6000 rpm, 10 min), and the resulting plasma was stirred with ethanol of three times (including an internal standard substance) added thereto. The brain sample was homogenized with 2 mL of water added thereto, and a part of it was taken out and stirred with ethanol of three times (including an internal standard substance) added thereto. The cerebrospinal fluid was homogenized with 3 times its volume of ethanol (including an internal standard substance) added thereto. The above samples were left at −20° C. for 20 minutes, then centrifuged (4° C., 12,000 g, 10 min), and the supernatant was analyzed through LC/MS/MS. According to a relative calibration curve method, the concentration of the test compound in the plasma, in the brain and in the cerebrospinal fluid was determined.

[2] = target: T1, human histamine-3 receptor (Homo sapiens, UniProt Q9Y5N1); test: Histamine analogue-binding inhibition test ([3H]N-α-methylhistamine, membrane specimen); details: result in words
T1 construct: expressed in transfected cells; host or cells: HEK293 and CHO-K1 (American Type Culture Collection)
T1 sequence (Q9Y5N1 whole entry): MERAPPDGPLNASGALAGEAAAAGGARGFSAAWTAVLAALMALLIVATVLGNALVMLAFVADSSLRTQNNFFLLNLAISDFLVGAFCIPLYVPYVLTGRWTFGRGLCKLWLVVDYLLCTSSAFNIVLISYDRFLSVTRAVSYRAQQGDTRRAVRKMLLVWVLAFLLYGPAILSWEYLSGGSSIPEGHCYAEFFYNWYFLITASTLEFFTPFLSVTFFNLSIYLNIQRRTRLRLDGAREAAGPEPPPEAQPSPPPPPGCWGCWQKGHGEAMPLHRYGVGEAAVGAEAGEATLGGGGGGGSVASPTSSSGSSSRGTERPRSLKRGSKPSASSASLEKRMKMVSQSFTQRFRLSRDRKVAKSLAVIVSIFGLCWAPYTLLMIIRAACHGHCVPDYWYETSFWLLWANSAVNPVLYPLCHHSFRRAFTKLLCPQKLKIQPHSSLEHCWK
Description: A membrane specimen prepared from the cells having expressed a histamine-3 receptor was incubated in an assay buffer (50 mM Tris buffer, pH 7.4) along with a test compound and 20,000 cpm [^3H]N-α-methylhistamine (by NEN) therein, at 25° C. for 2 hours, and then filtered through a glass filter GF/C. After washed with 50 mM Tris buffer (pH 7.4), the radioactivity on the glass filter was determined. The non-specific binding was determined in the presence of 10 μM thioperamide (by Sigma), and the 50% inhibitory concentration (IC50) of the test compound to the specific N-α-methylhistamine binding was calculated [see Molecular Pharmacology, Vol. 55, p.

concentration at 2 h ([1]; cerebrospinal fluid, oral administration 10 mg/kg, in 2 hours, read-out: concentration in the cerebrospinal fluid): 27 nM
concentration at 2 h ([1]; plasma, oral administration 10 mg/kg, in 2 hours, read-out: concentration in the plasma): 700 nM
concentration in the brain ([1]; oral administration 10 mg/kg, in 2 hours): 1.45 nmol/g
SMILES: Cn1c(-c2ccc(OC3CCN(C4CC4)CC3)cc2)nc2ccccc2c1=O [Example 89, 3-Methyl-2-[4-(1-cyclopropyl-4-piperidinyloxy)-phenyl]-4(3H)-quinazolinone]

SMILES: Cn1c(-c2ccc(OCCCN3CCCC3)cc2)nc2ccccc2c1=O [Example 16, 3-Methyl-2-[4-(3-pyrrolidin-1-ylpropoxy)phenyl]-4(3H)-quinazoline]
concentration at 30 min ([1]; cerebrospinal fluid, intravenous administration 3 mg/kg, in 30 minutes, read-out: concentration in the cerebrospinal fluid): 134 nM
concentration at 30 min ([1]; plasma, intravenous administration 3 mg/kg, in 30 minutes, read-out: concentration in the plasma): 1360 nM
concentration in the brain ([1]; intravenous administration 3 mg/kg, in 30 minutes): 2.22 nmol/g
inhibition of the binding of N-alpha-methylhistamine (histamine analogue) to histamine-H3 receptor [2]: strongly inhibited

melting point: 182.2 to 205.2 °C
SMILES: COc1ccnc2c(=O)n(C)c(-c3ccc(OC4CCN(C5CCC5)CC4)cc3)nc12 [Example 59, 2-{4-[(1-cyclobutylpiperidin-4-yl)oxy]phenyl}-8-methoxy-3-methylpyrido[3,2-d]pyrimidin-4(3H)-one]
